Experiments:
[1] = target: CYP3A4 (Homo sapiens, UniProt P08684); assay: biochemical; conditions: IC50 (μM) of honokiol, Midazolam 1'-hydroxylation
Description: The inhibitory potential (IC50 values) of honokiol on CYP activities was evaluated in pooled human liver microsomes using liquid chromatography-tandem mass spectrometry (LC-MS/MS). […] Honokiol was dissolved in acetonitrile. […] […] The reaction was then stopped by placement of the tubes on ice and adding 100 μL of ice-cold methanol containing internal standards (^13C2, ^15N-acetaminophen for acetaminophen and N-deethylamodiaquine, and d9-1-hydroxybufuralol for 4-hydroxydiclofenac, 4-hydroxybupropion, 7-hydroxycoumarin, 4-hydroxymephenytoin, 1'-hydroxybufuralol, and 1'-hydroxymidazolam). The incubation mixtures were then centrifuged at 13,000 × g for 4 min. All incubations were performed in triplicate, and average values were used.
The reaction was initiated by the addition of the cocktail containing seven CYP probe substrates and bupropion.
The metabolites formed from the seven CYP cocktail substrates were simultaneously determined according to our previously described LC-MS/MS method with minor modification; the concentration of 4-hydroxybupropion for CYP2B6 activity was quantified separately by LC-MS/MS. A tandem mass spectrometer (TSQ Quantum Access, Thermo Scientific, San Jose, CA, USA) coupled with a Nanospace SI-2 LC system (Tokyo, Japan) was used. […] Quantification was performed by selected reaction monitoring (SRM) of [M+H]^+ ions and the related product ions for each metabolite. […]

[2] = target: T1, UGT1A9 (Homo sapiens, UniProt O60656); assay: UGT1A9-catalyzed propofol glucuronidation inhibition in pooled human liver microsomes; type: in vitro ADME; conditions: pooled HLM (H161)
T1 sequence (O60656 26-530): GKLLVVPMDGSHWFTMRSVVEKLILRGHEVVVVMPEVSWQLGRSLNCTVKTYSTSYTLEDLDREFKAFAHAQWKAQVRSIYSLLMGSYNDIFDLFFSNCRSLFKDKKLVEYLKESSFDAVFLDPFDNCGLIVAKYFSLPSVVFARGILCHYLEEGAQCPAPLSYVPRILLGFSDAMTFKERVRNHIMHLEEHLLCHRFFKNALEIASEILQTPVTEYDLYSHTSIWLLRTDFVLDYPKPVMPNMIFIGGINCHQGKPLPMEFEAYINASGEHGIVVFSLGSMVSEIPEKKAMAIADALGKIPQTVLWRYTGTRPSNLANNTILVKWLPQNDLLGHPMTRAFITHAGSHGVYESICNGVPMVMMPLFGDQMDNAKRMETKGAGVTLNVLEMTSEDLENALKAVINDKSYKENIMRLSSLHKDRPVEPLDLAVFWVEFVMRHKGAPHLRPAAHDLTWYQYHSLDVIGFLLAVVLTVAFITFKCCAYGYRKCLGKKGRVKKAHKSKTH
Description: The inhibitory potency (IC50 value) of honokiol on UGT1A1-catalyzed 17β-estradiol 3-glucuronidation, UGT1A4-catalyzed trifluoperazine glucuronidation, UGT1A9-catalyzed propofol glucuronidation, and UGT2B7-catalyzed azidothymidine glucuronidation activities was determined in pooled human liver microsomes by LC-MS/MS [48]. […] Reactions were initiated by the addition of UDPGA (final concentration, 5 mM), and incubations were carried out at 37 °C in a shaking water bath for 30 min. Reactions were terminated by adding 100 μL of ice-cold methanol containing an internal standard (500 ng/mL ezetimibe for 17β-estradiol 3-glucuronide and propofol glucuronide; 30 ng/mL meloxicam for trifluoperazine glucuronide and azidothymidine glucuronide). The incubation mixtures were then centrifuged at 13,000 × g for 4 min, followed by dilution of 30 μL of the supernatant with 70 μL of water. An aliquot (5 μL) was injected onto the LC-MS/MS. All incubations were performed in triplicate and the mean values were used. Glucuronides produced from UGT isoform-specific substrates were determined by LC-MS/MS [49].
The incubation mixtures were then centrifuged at 13,000 × g for 4 min, after which 30 μL of the supernatant was diluted with 70 μL of water. Aliquots (5 μL) were then analyzed by LC-MS/MS.
The apparent kinetic parameters for inhibitory potential (Ki values) were estimated from the fitted curves using Enzyme Kinetics Ver. 1.1 software (Systat Software Inc.).

Chain of CYP3A4 (P08684 2-503): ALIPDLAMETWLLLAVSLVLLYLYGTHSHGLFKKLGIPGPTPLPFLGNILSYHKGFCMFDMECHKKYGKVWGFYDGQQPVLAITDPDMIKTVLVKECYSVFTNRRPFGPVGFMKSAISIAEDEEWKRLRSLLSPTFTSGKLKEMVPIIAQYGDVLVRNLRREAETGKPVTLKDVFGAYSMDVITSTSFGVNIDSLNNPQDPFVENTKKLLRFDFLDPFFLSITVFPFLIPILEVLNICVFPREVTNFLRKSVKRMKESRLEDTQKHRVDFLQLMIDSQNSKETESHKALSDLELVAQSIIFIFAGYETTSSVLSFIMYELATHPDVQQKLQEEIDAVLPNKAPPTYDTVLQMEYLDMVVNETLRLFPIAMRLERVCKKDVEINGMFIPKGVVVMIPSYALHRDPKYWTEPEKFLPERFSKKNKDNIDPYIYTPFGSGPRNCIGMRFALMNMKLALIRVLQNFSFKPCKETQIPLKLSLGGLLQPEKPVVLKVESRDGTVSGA

SMILES: C=CCc1ccc(O)c(-c2ccc(O)c(CC=C)c2)c1 [honokiol, 2-(4-hydroxy-3-prop-2-enyl-phenyl)-4-prop-2-enyl-phenol]
- IC50 ([1]; no preincubation, 2.5 μM midazolam, pooled HLM (H161)): 97.3 µM
- IC50 ([1]; with preincubation, 30 min preincubation with NADPH): 45.8 µM
- Ki ([2]; Propofol glucuronidation, 5–40 μM propofol): 300 nM
- Inhibition mode ([2]; Propofol glucuronidation): competitive
- IC50 at 30 min ([2]; human, pooled human liver microsomes, pH 7.4, probe propofol (10 μM), propofol glucuronidation, 10 μM propofol): 960 nM
- IC50 ([2]; propofol glucuronidation, 10 μM propofol): 980 nM

Source: paper PMC6269737, “Effect of Honokiol on Cytochrome P450 and UDP-Glucuronosyltransferase Enzyme Activities in Human Liver Microsomes” (Molecules, 2013)
